Data reported in PubChem BioAssay (NCI).
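Growth conditions: 96-well plates. Treatment: test compound, 48 hours, 5 concentrations. Analysis: linear interpolation between bracketing concentrations; unreached endpoints set to highest concentration. Abbreviation: GI50, concentration required for 50% inhibition of growth. TGI marks complete inhibition of growth.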

How the values were obtained:
Experiment in all cases: DTP human tumour cell line panel, 48 h
786-0 renal = test system: 786-0 renal
A498 renal = test system: A498 renal
A549 NSCLC = test system: A549 NSCLC
ACHN renal = test system: ACHN renal
BT-549 breast = test system: BT-549 breast
CAKI-1 renal = test system: CAKI-1 renal
CCRF-CEM leukemia = test system: CCRF-CEM leukemia
COLO 205 colon = test system: COLO 205 colon
DU-145 prostate = test system: DU-145 prostate
EKVX NSCLC = test system: EKVX NSCLC
HCC-2998 colon = test system: HCC-2998 colon
HCT-116 colon = test system: HCT-116 colon
HCT-15 colon = test system: HCT-15 colon
HL-60(TB) leukemia = test system: HL-60(TB) leukemia
HOP-62 NSCLC = test system: HOP-62 NSCLC
HS 578T breast = test system: HS 578T breast
HT29 colon = test system: HT29 colon
IGROV1 ovarian = test system: IGROV1 ovarian
K-562 leukemia = test system: K-562 leukemia
KM12 colon = test system: KM12 colon
LOX IMVI melanoma = test system: LOX IMVI melanoma
M14 melanoma = test system: M14 melanoma
MALME-3M melanoma = test system: MALME-3M melanoma
MCF7 breast = test system: MCF7 breast
MDA-MB-231 breast = test system: MDA-MB-231 breast
MDA-MB-435 = test system: MDA-MB-435
MOLT-4 leukemia = test system: MOLT-4 leukemia
NCI-H226 lung = test system: NCI-H226 lung
NCI-H23 lung = test system: NCI-H23 lung
NCI-H460 lung = test system: NCI-H460 lung
NCI-H522 lung = test system: NCI-H522 lung
NCI/ADR-RES ovarian = test system: NCI/ADR-RES ovarian
OVCAR-3 ovarian = test system: OVCAR-3 ovarian
OVCAR-4 ovarian = test system: OVCAR-4 ovarian
OVCAR-5 ovarian = test system: OVCAR-5 ovarian
OVCAR-8 ovarian = test system: OVCAR-8 ovarian
PC-3 prostate = test system: PC-3 prostate
RPMI-8226 leukemia = test system: RPMI-8226 leukemia
RXF 393 renal = test system: RXF 393 renal
SF-268 CNS = test system: SF-268 CNS
SF-295 CNS = test system: SF-295 CNS
SF-539 CNS = test system: SF-539 CNS
SK-MEL-2 melanoma = test system: SK-MEL-2 melanoma
SK-MEL-28 melanoma = test system: SK-MEL-28 melanoma
SK-MEL-5 melanoma = test system: SK-MEL-5 melanoma
SK-OV-3 ovarian = test system: SK-OV-3 ovarian
SN12C renal = test system: SN12C renal
SNB-19 CNS = test system: SNB-19 CNS
SNB-75 CNS = test system: SNB-75 CNS
SR leukemia = test system: SR leukemia
SW-620 colon = test system: SW-620 colon
T-47D breast = test system: T-47D breast
TK-10 renal = test system: TK-10 renal
U251 CNS = test system: U251 CNS
UACC-257 melanoma = test system: UACC-257 melanoma
UACC-62 melanoma = test system: UACC-62 melanoma
UO-31 renal = test system: UO-31 renal

Compound: COc1ccc(C2CC(c3ccc(N(C)C)cc3)=NN2c2ccc(S(N)(=O)=O)cc2)cc1 (centres undefined)
- GI50 (786-0 renal): 3.79 µM
- TGI (786-0 renal): 20.6 µM
- GI50 (A498 renal): 2.15 µM
- TGI (A498 renal): 8.53 µM
- GI50 (A549 NSCLC): 3.16 µM
- TGI (A549 NSCLC): > 100 µM
- GI50 (ACHN renal): 3.37 µM
- TGI (ACHN renal): > 100 µM
- GI50 (BT-549 breast): 2.99 µM
- TGI (BT-549 breast): 8.7 µM
- GI50 (CAKI-1 renal): 3.35 µM
- TGI (CAKI-1 renal): > 100 µM
- GI50 (CCRF-CEM leukemia): 5.24 µM
- TGI (CCRF-CEM leukemia): > 100 µM
- GI50 (COLO 205 colon): 2.46 µM
- TGI (COLO 205 colon): 5.49 µM
- GI50 (DU-145 prostate): 4.84 µM
- TGI (DU-145 prostate): > 100 µM
- GI50 (EKVX NSCLC): 3.79 µM
- TGI (EKVX NSCLC): > 100 µM
- GI50 (HCC-2998 colon): 2.99 µM
- TGI (HCC-2998 colon): 12.4 µM
- GI50 (HCT-116 colon): 2.12 µM
- TGI (HCT-116 colon): 4.77 µM
- GI50 (HCT-15 colon): 2.99 µM
- TGI (HCT-15 colon): > 100 µM
- GI50 (HL-60(TB) leukemia): 3.99 µM
- TGI (HL-60(TB) leukemia): 86.3 µM
- GI50 (HOP-62 NSCLC): 3.96 µM
- TGI (HOP-62 NSCLC): > 100 µM
- GI50 (HS 578T breast): 5.52 µM
- TGI (HS 578T breast): 42.6 µM
- GI50 (HT29 colon): 3.5 µM
- TGI (HT29 colon): 10.7 µM
- GI50 (IGROV1 ovarian): 4.31 µM
- TGI (IGROV1 ovarian): > 100 µM
- GI50 (K-562 leukemia): 3.8 µM
- TGI (K-562 leukemia): > 100 µM
- GI50 (KM12 colon): 3.68 µM
- TGI (KM12 colon): > 100 µM
- GI50 (LOX IMVI melanoma): 1.87 µM
- TGI (LOX IMVI melanoma): 4.02 µM
- GI50 (M14 melanoma): 4.42 µM
- TGI (M14 melanoma): > 100 µM
- GI50 (MALME-3M melanoma): 4.12 µM
- TGI (MALME-3M melanoma): 28.1 µM
- GI50 (MCF7 breast): 3 µM
- TGI (MCF7 breast): 21.7 µM
- GI50 (MDA-MB-231 breast): 4.73 µM
- TGI (MDA-MB-231 breast): 60.3 µM
- GI50 (MDA-MB-435): 3.25 µM
- TGI (MDA-MB-435): 34.4 µM
- GI50 (MOLT-4 leukemia): 3.91 µM
- TGI (MOLT-4 leukemia): > 100 µM
- GI50 (NCI-H226 lung): 2.54 µM
- TGI (NCI-H226 lung): 8.09 µM
- GI50 (NCI-H23 lung): 3.13 µM
- TGI (NCI-H23 lung): > 100 µM
- GI50 (NCI-H460 lung): 2.44 µM
- TGI (NCI-H460 lung): 5.53 µM
- GI50 (NCI-H522 lung): 2.69 µM
- TGI (NCI-H522 lung): 6.69 µM
- GI50 (NCI/ADR-RES ovarian): 4.73 µM
- TGI (NCI/ADR-RES ovarian): > 100 µM
- GI50 (OVCAR-3 ovarian): 3.02 µM
- TGI (OVCAR-3 ovarian): 8.18 µM
- GI50 (OVCAR-4 ovarian): 3.19 µM
- TGI (OVCAR-4 ovarian): > 100 µM
- GI50 (OVCAR-5 ovarian): 6.57 µM
- TGI (OVCAR-5 ovarian): > 100 µM
- GI50 (OVCAR-8 ovarian): 3.98 µM
- TGI (OVCAR-8 ovarian): > 100 µM
- GI50 (PC-3 prostate): 3.65 µM
- TGI (PC-3 prostate): > 100 µM
- GI50 (RPMI-8226 leukemia): 3.26 µM
- TGI (RPMI-8226 leukemia): 13.2 µM
- GI50 (RXF 393 renal): 2.56 µM
- TGI (RXF 393 renal): 7.52 µM
- GI50 (SF-268 CNS): 5.76 µM
- TGI (SF-268 CNS): > 100 µM
- GI50 (SF-295 CNS): 3.42 µM
- TGI (SF-295 CNS): > 100 µM
- GI50 (SF-539 CNS): 4.32 µM
- TGI (SF-539 CNS): 56.1 µM
- GI50 (SK-MEL-2 melanoma): 4 µM
- TGI (SK-MEL-2 melanoma): 14.3 µM
- GI50 (SK-MEL-28 melanoma): 4.81 µM
- TGI (SK-MEL-28 melanoma): 93.8 µM
- GI50 (SK-MEL-5 melanoma): 1.73 µM
- TGI (SK-MEL-5 melanoma): 3.37 µM
- GI50 (SK-OV-3 ovarian): 4.38 µM
- TGI (SK-OV-3 ovarian): > 100 µM
- GI50 (SN12C renal): 2.15 µM
- TGI (SN12C renal): 4.63 µM
- GI50 (SNB-19 CNS): 5.94 µM
- TGI (SNB-19 CNS): > 100 µM
- GI50 (SNB-75 CNS): 5.42 µM
- TGI (SNB-75 CNS): > 100 µM
- GI50 (SR leukemia): 3.77 µM
- TGI (SR leukemia): > 100 µM
- GI50 (SW-620 colon): 4.06 µM
- TGI (SW-620 colon): > 100 µM
- GI50 (T-47D breast): 4.51 µM
- TGI (T-47D breast): > 100 µM
- GI50 (TK-10 renal): 4.32 µM
- TGI (TK-10 renal): 35 µM
- GI50 (U251 CNS): 3.28 µM
- TGI (U251 CNS): > 100 µM
- GI50 (UACC-257 melanoma): 4.48 µM
- TGI (UACC-257 melanoma): > 100 µM
- GI50 (UACC-62 melanoma): 5.85 µM
- TGI (UACC-62 melanoma): > 100 µM
- GI50 (UO-31 renal): 3.01 µM
- TGI (UO-31 renal): 54.8 µM
